Measurements: patent US20230172944A1, “ROCK INHIBITORS FOR USE IN TREATING OR PREVENTING PULMONARY EDEMA” (ATRIVA THERAPEUTICS GMBH, priority 2020, published 2023)

What was measured:
[1] = system: IAV A/Puerto Rico/8/32 (H1N1); experiment: Body weight of infected mice; type: in vivo, C57BL/6 mice; settings: 10 mg/kg 1×daily in saline solution, 500 PFU/mouse, 7 days
Experimental: PR8: Body weight of mice infected with IAV A/Puerto Rico/8/32 (H1N1, 500 PFU/mouse). […] The experiment was planned for 7 days only. Afterwards the mice were euthanized for ethical reasons.
All animal experiments were performed according to the latest guidelines of the “Federation of European Laboratory Animal Science Associations (FELASA)” and approved by the local committee of the Max-Planck Laboratory for Heart & Lung Research Instituto de Investigación en Biomedicina de Buenos Aires (IBioBA). Six-week-old BALB/c mice (n=5 per group) were infected by intra-tracheal inoculation of 500 plaque-forming units (pfu)/mouse of PR8 in a volume of 30 μl. […] As a control IP injection of sterile PBS −/− were applied. Body weight was monitored every day until day 8 p.i.. On the day 7 after treatment start (=day 8 p.i.) mice were sacrificed by an overdose of isoflurane.

[2] = system: IAV A/Puerto Rico/8/32 (H1N1); experiment: Lung histology (Hematoxilin/Eosin) and nuclear count quantification of infiltrates; type: in vivo; settings: 10 mg/kg 1×daily for 6 days, 5 mice, 7th day p.i., Aperio nuclear count
[3] = system: IAV A/Puerto Rico/8/32 (H1N1); experiment: Virus titer of lung homogenizates (foci assay); type: in vivo, mice; settings: 10 mg/kg 1×daily for 6 days, 500 PFU/mouse, 7th day p.i., n=3
Experimental: PR8: Virus titer of lung homogenizates from mice infected with IAV A/Puerto Rico/8/32 (H1N1, 500 PFU/Mouse) were infected (7th day p.i.).
For the foci forming assay, MDCK II cells were seeded in 96-well plates at a concentration of 3×10^6 cells/plate. The next day, 10-fold dilutions in duplicates (from 10^−1 to 10^−8) in PBS+/+/BA/PS was prepared from each virus sample in U-shaped 96-well. Importantly, during the preparation of the dilutions the pipet tips were changed after each dilution step. The MDCK II cells in the 96-well plate(s) were washed once with PBS+/+. […] 1 hour later, cells again were washed with 400 μl of washing buffer and 40 μl 3-Amino-9-ethylcarbazole (AEC)-staining buffer (1×AEC diluted N—N-dimethylformamide in acetate buffer (50 mM ammonium acetate, 8.8 mM H202) were added to each well. Following incubation for 30 min at 37° C. until foci could be detected, the staining buffer was removed and cells were washed twice with dH2O. Air-dried plates were scanned by using the Epson Perfection V500 Photo scan (Epson) at 1200 dpi and total number of foci was determined per well. Since Avicel-medium has a high viscosity that prevents diffusion of virus particles in surrounding media, virus can spread only from one cell to other forming foci. […]

[4] = system: Calu3 cells infected with influenza virus A/Puerto Rico/8/34 (H1N1); experiment: Antibody staining and confocal laser-scanning microscopy of apical NKA localization; type: cell-based, human; settings: PR8-infected Calu3 cells treated with ROCK inhibitor, 20 h p.i.
Experimental: In order to obtain highly polarized Calu3 cells, the cell monolayer in a 175 cm^2 tissue culture flask grown to 50% confluence was washed once with PBS −/− and treated with Trypsin-EDTA. Cells were resuspended in 10 ml culture medium and centrifuged for 15 min at 300×g, 24° C. Supernatant was discarded and cells were resuspended in 5 ml of culture medium. 30 μl of cell suspension were mixed with 30 μl of 0.4% trypan blue dye and cell concentration was calculated in Neubauer chamber according manufacturer's instruction. Cells were dilute to a concentration of 2×10^6 viable cells/ml in Calu3 culture medium and 250 μl/125 μl of the cell suspension containing 0.5×10^6/0.25×10^6 viable cells were placed to the apical compartment of each Transwells® insert in a 12/24 well plate. 1/0.3 ml of Calu-3 culture medium was added into the basolateral compartments, avoiding the introduction of air bubbles and cells were cultivated at 37° C., 5% CO2. For the cells grown under the Liquid-Liquid Interface (LLI) condition, medium was replaced in both compartments each second day. For Air-Liquid Interface (ALI), culture medium was aspirated from the apical compartment on the day two, whereas medium was replaced every 2 days in the basolateral compartments.
For immunofluorescence assay cells were washed ones with PBS+/+ and fixed with or without extra permeabilization at the indicated time points. […]

[5] = system: polarized Calu3 cells infected with influenza virus A/Puerto Rico/8/34 (H1N1); experiment: Vectorial water transport (FITC-dextran) over polarized Calu3 cells; type: cell-based, human
[6] = system: Calu3 cells infected with influenza virus A/Puerto Rico/8/34; experiment: Coomassie staining of confluent polarized Calu3 cells (virus-induced epithelial cell damage); type: cell-based; settings: 5 μM, MOI=5, Coomassie 24 h p.i.

Compound	body weight loss of infected mice [1]	number of infiltrates (quantification, total cell count/mm2) [2]	virus titer in the lungs of infected mice [3]	apical sodium-potassium-ATPase (NKA) localization [4]	vectorial water transport (VWT) [5]	virus-induced epithelial cell damage (cytopathic effect) [6]	cell viability of infected Calu3 cells (Calu3 cells)	cell viability of non-infected Calu3 cells (Calu3 cells; 5 μM, 0, 6, 16, 24 hours, mock set to 100%)
Cl.O=S(=O)(c1cccc2cnccc12)N1CCCNCC1 [Fasudil HCl, Isoquinoline 5-[(hexahydro-1H-1,4-diazepin-1-yl)sulfonyl]-N-(5-Isoquinolinesulfonyl)-1,4-per-hydrodiazepine]	tendential reduction of the body weight loss	reduces the number of infiltrates	reduces the virus titer in the lungs of infected mice	–	–	–	–	–
O=C(NCc1cccc(O)c1)Nc1nc(-c2ccncc2)cs1 [Rho XIII, 1-(3-Hydroxybenzyl)-3-(4-(pyridin-4-yl)thiazol-2-yl)urea]	–	–	–	prevents apical sodium-potassium-ATPase (NKA) localization	improves vectorial water transport	reduces virus-induced epithelial cell damage in vitro	increases cell viability	increases cell viability
